This passage reports IC50 results from patent US9802944B2, “Bicyclic compounds as autotaxin (ATX) and lysophosphatidic acid (LPA) production inhibitors” (Hoffmann-La Roche Inc., priority 2014, dated 2017).

In the test the target is ATX (human His-tagged) (Homo sapiens (Human), UniProt Q13822). The experiment in a line: Human ATX enzyme inhibition assay (fluorescence quenching, MR121 substrate). The format is biochemical. The following applies: 30 nM ATX, 1 μM MR121 substrate, 30° C., pH 8.0. The protocol:
Production of Human Full Length ATX, with and without his Tag
Autotaxin (ATX-ENPP2) Cloning:
cDNA was prepared from commercial human hematopoietic cells total RNA and used as template in overlapping PCR to generate a full length human ENPP2 ORF with or without a 3′-6×His tag. These full length inserts were cloned into the pcDNA3.1V5-His TOPO (Invitrogen) vector. The DNA sequences of several single clones were verified. The DNA from a correct full length clone was used to transfect Hek293 cells for verification of protein expression. […] ATX Fermentation: Recombinant protein was produced by large-scale transient transfection in 20 L controlled stirred tank bioreactors (Sartorius). During cell growth and transfection, temperature, stirrer speed, pH and dissolved oxygen concentration were maintained at 37° C., 120 rpm, 7.1 and 30% DO, respectively. […] Expression was analyzed by Western Blot, enzymatic assay and/or analytical IMAC chromatography. After cooling the cell suspension to 4° C. in a flow-through heat exchanger, cell separation and sterile filtration of supernatant was performed by filtration through Zeta Plus 60M02 E16 (Cuno) and Sartopore 2 XLG (Sartorius) filter units. The supernatant was stored at 4° C. prior to purification. ATX Purification: 20 liter of culture supernatant were conditioned for ultrafiltration by adding Brij 35 to a final concentration of 0.02% and by adjusting the pH to 7.0 using 1 M HCl. Then the supernatant was first microfiltered through a 0.2 μm Ultran-Pilot Open Channel PES filter (Whatman) and afterwards concentrated to 1 liter through an Ultran-Pilot Screen Channel PES filter with 30 kDa MWCO (Whatman). Prior to IMAC chromatography, NiSO4 was added to a final concentration of 1 mM. The cleared supernatant was then applied to a HisTrap column (GE Healthcare) previously equilibrated in 50 mM Na2HPO4 pH 7.0, 0.5 M NaCl, 10% glycerol, 0.3% CHAPS, 0.02% NaN3. The column was washed stepwise with the same buffer containing 20 mM, 40 mM and 50 mM imidazole, respectively. The protein was subsequently eluted using a linear gradient to 0.5 M imidazole in 15 column volumes. ATX containing fractions were pooled and concentrated using an Amicon cell equipped with a 30 kDa PES filter membrane. The protein was further purified by size exclusion chromatography on Superdex S-200 prep grade (XK 26/100) (GE Healthcare) in 20 mM BICINE pH 8.5, 0.15 M NaCl, 10% glycerol, 0.3% CHAPS, 0.02% NaN3. […] The protein was stored at −80° C. […] 10 μL of MR121 substrate solution was added (1 μM final concentration), mixed 30 times and then incubated for 15 minutes at 30° C.
The term IC50 denotes the midpoint of a concentration-inhibition curve. Lower therefore signals greater potency in that assay. Regarding `O=C(c1cc(OCC2CCOCC2)nc(C2CC2)c1)N1CC[C@@H]2CN(C(=O)c3ccc4[nH]c(=O)oc4c3)C[C@@H]2CC1` [Example 3.02, 6-((3aR,8aS)-6-(2-cyclopropyl-6-((tetrahydro-2H-pyran-4-yl)methoxy)isonicotinoyl)decahydropyrrolo[3,4-d]azepine-2-carbonyl)benzo[d]oxazol-2(3H)-one], inhibition was half-maximal at 25 nM (IC50). `O=C(c1cc(OCC2CCOCC2)cc(C2CC2)c1)N1CC[C@@H]2CN(C(=O)[C@@H]3CCc4[nH]nnc4C3)C[C@@H]2CC1` [Example 2.28, ((3aR,8aS)-6-(3-cyclopropyl-5-((tetrahydro-2H-pyran-4-yl)methoxy)benzoyl)octahydropyrrolo[3,4-d]azepin-2(1H)-yl)((R)-4,5,6,7-tetrahydro-1H-benzo[d][1,2,3]triazol-5-yl)methanone] gave an IC50 of 7 nM. With `O=C(c1cnc(OC2CCOCC2)c(C2CC2)c1)N1C[C@@H]2CN(Cc3ccc4[nH]nnc4c3)C[C@H]2C1` [Example 4.01, ((3aS,6aS)-5-((1H-benzo[d][1,2,3]triazol-5-yl)methyl)hexahydropyrrolo[3,4-c]pyrrol-2(1H)-yl)(5-cyclopropyl-6-(tetrahydro-2H-pyran-4-yloxy)pyridin-3-yl)methanone] the figure was 39 nM. Compound `O=C(c1cnc(OC2CCCOC2)c(C2CC2)c1)N1C[C@@H]2CN(C(=O)[C@@H]3CCc4[nH]nnc4C3)C[C@H]2C1` (stereo partly drawn) [Example 2.12, ((3aS,6aS)-5-(5-cyclopropyl-6-(tetrahydro-2H-pyran-3-yloxy)nicotinoyl)hexahydropyrrolo[3,4-c]pyrrol-2(1H)-yl)((R)-4,5,6,7-tetrahydro-1H-benzo[d][1,2,3]triazol-5-yl)methanone] displayed a 50% inhibitory concentration (IC50) of 11 nM.

Take `O=C(c1cc(OCC2CCOCC2)nc(C2CC2)c1)N1C[C@@H]2CN(C(=O)c3ccc4[nH]nnc4c3)C[C@@H]2C1` [Example 2.26, ((3aR,6aS)-5-(1H-benzo[d][1,2,3]triazole-5-carbonyl)hexahydropyrrolo[3,4-c]pyrrol-2(1H)-yl)(2-cyclopropyl-6-((tetrahydro-2H-pyran-4-yl)methoxy)pyridin-4-yl)methanone]: the IC50 is 14 nM. Turning to `CN(C)c1cc(C(=O)N2C[C@@H]3CN(C(=O)c4ccc5[nH]nnc5c4)C[C@H]3C2)cc(OCC2CCOCC2)n1` [Example 2.23, ((3aS,6aS)-5-(1H-benzo[d][1,2,3]triazole-5-carbonyl)hexahydropyrrolo[3,4-c]pyrrol-2(1H)-yl)(2-(dimethylamino)-6-((tetrahydro-2H-pyran-4-yl)methoxy)pyridin-4-yl)methanone], the IC50 turned out to be 5 nM. To `O=C(c1cnc(NC2CCOCC2)c(C2CC2)c1)N1C[C@@H]2CN(C(=O)[C@@H]3CCc4[nH]nnc4C3)C[C@H]2C1` [Example 2.11, ((3aS,6aS)-5-(5-cyclopropyl-6-(tetrahydro-2H-pyran-4-ylamino)nicotinoyl)hexahydropyrrolo[3,4-c]pyrrol-2(1H)-yl)((R)-4,5,6,7-tetrahydro-1H-benzo[d][1,2,3]triazol-5-yl)methanone] belongs 9 nM. To `O=C(c1cc(OCC2CCOCC2)nc(C2CC2)c1)N1C[C@@H]2CN(Cc3ccc4[nH]nnc4c3)C[C@H]2C1` [Example 2.18, ((3aS,6aS)-5-((1H-benzo[d][1,2,3]triazol-5-yl)methyl)hexahydropyrrolo[3,4-c]pyrrol-2(1H)-yl)(2-cyclopropyl-6-((tetrahydro-2H-pyran-4-yl)methoxy)pyridin-4-yl)methanone] belongs 10 nM; to `O=C(c1cc(OCC2CCCOC2)nc(C2CC2)c1)N1C[C@@H]2CN(Cc3ccc4[nH]nnc4c3)C[C@H]2C1` (stereo partly drawn) [Example 2.19, ((3aS,6aS)-5-((1H-benzo[d][1,2,3]triazol-5-yl)methyl)hexahydropyrrolo[3,4-c]pyrrol-2(1H)-yl)(2-cyclopropyl-6-((tetrahydro-2H-pyran-3-yl)methoxy)pyridin-4-yl)methanone], 10 nM.

On to `O=C(c1cc(OCC2CCCOC2)nc(C2CC2)c1)N1C[C@@H]2CN(C(=O)[C@@H]3CCc4[nH]nnc4C3)C[C@H]2C1` (stereo partly drawn) [Example 2.16, ((3aS,6aS)-5-(2-cyclopropyl-6-((tetrahydro-2H-pyran-3-yl)methoxy)isonicotinoyl)hexahydropyrrolo[3,4-c]pyrrol-2(1H)-yl)((R)-4,5,6,7-tetrahydro-1H-benzo[d][1,2,3]triazol-5-yl)methanone], for which half-maximal inhibition (IC50) required 17 nM. To `O=C(c1cc(OCC2CCOCC2)nc(C2CC2)c1)N1C[C@@H]2CN(C(=O)c3ccc4[nH]c(=O)oc4c3)C[C@H]2C1` [Example 3.01, 6-((3aS,6aS)-5-(2-cyclopropyl-6-((tetrahydro-2H-pyran-4-yl)methoxy)isonicotinoyl)octahydropyrrolo[3,4-c]pyrrole-2-carbonyl)benzo[d]oxazol-2(3H)-one] belongs 12 nM; to `O=C(c1cnc(OC2COC2)c(C(F)(F)F)c1)N1C[C@@H]2CN(C(=O)c3ccc4[nH]nnc4c3)C[C@H]2C1` [Example 2.08, ((3aS,6aS)-5-(1H-benzo[d][1,2,3]triazole-5-carbonyl)hexahydropyrrolo[3,4-c]pyrrol-2(1H)-yl)(6-(oxetan-3-yloxy)-5-(trifluoromethyl)pyridin-3-yl)methanone], 68.5 nM. With `O=C(OCc1c[nH]nn1)N1C[C@H]2CCN(C(=O)c3cc(OCC4CCOCC4)nc(C4CC4)c3)CC[C@H]2C1` [Example 7, 1H-Triazol-4-ylmethyl (3aS,8aR)-6-[2-cyclopropyl-6-(oxan-4-ylmethoxy)pyridine-4-carbonyl]-1,3,3a,4,5,7,8,8a-octahydropyrrolo[3,4-d]azepine-2-carboxylate] the figure was 6 nM; with `O=C(c1cc(OCC2CCOCC2)nc(C2CC2)c1)N1C[C@@H]2CN(C(=O)c3ccc4[nH]nnc4c3)C[C@H]2C1` [Example 2.01, ((3aS,6aS)-5-(1H-benzo[d][1,2,3]triazole-5-carbonyl)hexahydropyrrolo[3,4-c]pyrrol-2(1H)-yl)(2-cyclopropyl-6-((tetrahydro-2H-pyran-4-yl)methoxy)pyridin-4-yl)methanone], 3 nM; with `O=C(c1ccc(OC2CCOC2)c(C2CC2)c1)N1C[C@@H]2CN(C(=O)[C@@H]3CCc4[nH]nnc4C3)C[C@H]2C1` (stereo partly drawn) [Example 2.02, ((3aS,6aS)-5-(3-cyclopropyl-4-(tetrahydrofuran-3-yloxy)benzoyl)hexahydropyrrolo[3,4-c]pyrrol-2(1H)-yl)((R)-4,5,6,7-tetrahydro-1H-benzo[d][1,2,3]triazol-5-yl)methanone], 17 nM. To `CN(C)c1cc(C(=O)N2C[C@@H]3CN(C(=O)[C@@H]4CCc5[nH]nnc5C4)C[C@H]3C2)cc(OCC2CCOCC2)n1` [Example 2.25, ((3aS,6aS)-5-(2-(dimethylamino)-6-((tetrahydro-2H-pyran-4-yl)methoxy)isonicotinoyl)hexahydropyrrolo[3,4-c]pyrrol-2(1H)-yl)((R)-4,5,6,7-tetrahydro-1H-benzo[d][1,2,3]triazol-5-yl)methanone] belongs 17 nM; to `O=C(c1cnc(OC2CCOCC2)c(C2CC2)c1)N1C[C@@H]2CN(C(=O)c3ccc4[nH]nnc4c3)C[C@H]2C1` [Example 2.07, ((3aS,6aS)-5-(1H-benzo[d][1,2,3]triazole-5-carbonyl)hexahydropyrrolo[3,4-c]pyrrol-2(1H)-yl)(5-cyclopropyl-6-(tetrahydro-2H-pyran-4-yloxy)pyridin-3-yl)methanone], 10 nM; to `O=C(c1cnc(OC2CCOCC2)c(C2CC2)c1)N1C[C@@H]2CN(Cc3ccc4[nH]c(=O)oc4c3)C[C@H]2C1` [Example 4, 6-(((3aS,6aS)-5-(5-Cyclopropyl-6-(tetrahydro-2H-pyran-4-yloxy)nicotinoyl)hexahydropyrrolo[3,4-c]pyrrol-2(1H)-yl)methyl)benzo[d]oxazol-2(3H)-one], 19 nM. Compound `O=C(c1cnc(OC2CCOCC2)c(C2CC2)c1)N1C[C@@H]2CN(C(=O)[C@@H]3CCc4[nH]nnc4C3)C[C@H]2C1` [Example 2.09, ((3aS,6aS)-5-(5-cyclopropyl-6-(tetrahydro-2H-pyran-4-yloxy)nicotinoyl)hexahydropyrrolo[3,4-c]pyrrol-2(1H)-yl)((R)-4,5,6,7-tetrahydro-1H-benzo[d][1,2,3]triazol-5-yl)methanone] yielded an IC50 of 20 nM.
